In assay [1] the test system is Aβ1-40 peptide secretion. Briefly: Quantification of secreted Aβ1-40 by ELISA in SY5Y-APP695WT cells. It is filed as cell-based. Particulars: Homo sapiens; concentration inhibiting 50% of Aβ1-40 peptide secretion in SY5Y cells; 24 h treatment; mean ± SD of at least two experiments in triplicate. The procedure:
(§1) Cell culture and treatment. The human neuroblastoma cell line […] was maintained in Dulbecco's modified Eagle medium (DMEM, high glucose, pyruvate-GIBCO by Life Technologies) supplemented with 10% foetal bovine serum, 2 mM L-glutamine, 1 mM non-essential amino acids and penicillin/streptomycin (GIBCO by Life Technologies) at 37° C. in a 5% CO2 humidified incubator. […] cells were maintained in 75 cm^2 culture flasks (Falcon) with supplemented DMEM medium until they reached 80% of confluence 24 h before treatment. For compounds treatment, a 10 mM stock solution was diluted in freshly supplemented DMEM medium to obtain the precise final concentration of drug. Bafilomycin A1 (BafA1), the vacuolar […] type H+ ATPase inhibitor, was purchased from Merck Millipore and was used at a final dilution of 100 nM. For drug treatment, cells were plated at a rate of 5·10^5 cells per well into 12-well plates (Falcon) and cultured with 1 mL supplemented DMEM cell medium for 24 h before drug exposure. The following day, cell medium was replaced with fresh medium containing drugs diluted at the indicated concentrations. Cells were treated for 24 h. At the end of treatments, the cell medium was collected and kept at -80° C. until use for dosage. Then, cells were rinsed once with PBS and extracted in 100 μL of Laemmli buffer (10 mM Tris, 20% glycerol and 2% Sodium dodecyl sulfate) using a cell-scraper. The cell lysate was further sonicated (30 pulses of 0.5 s, 60 Hz) for 5 min. Total protein concentration was determined using the Pierce BCA Protein Assay Kit (Thermo scientific) according to the manufacturer's instructions. Samples were stored at -80° C. until analysis. Quantification of secreted Aβ1-40/1-42 and sAPPα/sAPPβ. Conditioned media of […] collected at the end of treatments were centrifuged at 1000 g for 5 min to eliminate cells debris. Aβ1-40 and Aβ1-42 peptide concentrations in […] were determined using amyloid-beta 40 and 42 Human ELISA kits (Invitrogen) according to the manufacturer's instructions after 1:10 and 1:2 dilutions of supernatants in ELISA buffer, respectively. sAPPα and sAPPβ concentrations in ng/mL were determined using the sAPPα/sAPPβ kit (Meso Scale Diagnostics, MSD®) according to the manufacturer's instructions. Compounds of the invention (compounds 24-37, 41, 44 and 51-58) were evaluated for their ability to modulate APP processing on SY5Y human neuroblastoma cell line stably expressing the neuronal isoform of human wild-type APP695 (SYSY-APPwt). Aβ levels (Aβ1-40 and Aβ1-42) after treatment with reference and tested compounds were measured by ELISA (Table 2). […] APP carboxy-terminal fragments (αCTFs and AICD) were measured by Western blot and quantified. The effect of reference and tested compounds on αCTFs and AICD are expressed as the intensity of corresponding western-blot bands resulting from the secretase cleavages.
(In general: In an ELISA, binding on a coated surface is turned into a signal by an enzyme label.)

Assay [2] concerns CTFα. The assay is described as follows: APP carboxy-terminal fragment αCTF by Western blot in SY5Y-APP695WT cells. It is filed as cell-based, human. The following applies: CTFα increase compared to chloroquine ([CTF]compound/[CTF]CQ) at 3 μM; mean of at least three experiments. An excerpt: (§2) Antibodies. Primary antibodies used in this study for western-blot analysis included a homemade rabbit antiserum against the last 17 amino acids of human APP protein sequence, named APP-Cter-C17 (1/5000 in TBS-M). Anti-β-actin (1/10 000 in TBS-M) was obtained from Sigma. Anti-LC3B (1/2000 in TBS-BSA) and anti-p62/SQSTM1 (1/2000 in TBS-M) antibodies were purchased from Cell Signaling Technology. Secondary antibodies (peroxidase-labeled goat anti-rabbit IgG, 1/5000 or peroxidase-labeled horse anti-mouse IgG, 1/50000 in TBS-T) were obtained from Vector Laboratories.
(§3) Cell culture and treatment. The human neuroblastoma cell line SY5Y-APP^695WT was maintained in Dulbecco's modified Eagle medium (DMEM, high glucose, pyruvate—GIBCO by Life Technologies) supplemented with 10% foetal bovine serum, 2 mM L-glutamine, 1 mM non-essential amino acids and penicillin/streptomycin (GIBCO by Life Technologies) at 37° C. in a 5% CO2 humidified incubator. SY5Y-APP^695WT cells were maintained in 75 cm^2 culture flasks (Falcon) with supplemented DMEM medium until they reached 80% of confluence 24 h before treatment.
(§4) For drug treatment, cells were plated at a rate of 5·10^5 cells per well into 12-well plates (Falcon) and cultured with 1 mL supplemented DMEM cell medium for 24 h before drug exposure. The following day, cell medium was replaced with fresh medium containing drugs diluted at the indicated concentrations. Cells were treated for 24 h. At the end of treatments, the cell medium was collected and kept at −80° C. until use for dosage. Then, cells were rinsed once with PBS and extracted in 100 μL of Laemmli buffer (10 mM Tris, 20% glycerol and 2% Sodium dodecyl sulfate) using a cell-scraper. The cell lysate was further sonicated (30 pulses of 0.5 s, 60 Hz) for 5 min. Total protein concentration was determined using the Pierce BCA Protein Assay Kit (Thermo scientific) according to the manufacturer's instructions. Samples were stored at −80° C. until analysis.
(§5) Western Blot Analysis. Cell protein lysates were prepared for western-blot analysis by diluting the sample with 1 volume of NuPAGE® lithium dodecyl sulfate (LDS) 2× sample buffer supplemented with 20% NuPAGE® sample reducing agents (Invitrogen). Samples were heat 10 min at 100° C. 10 μg of total proteins per well were loaded onto a precast 4-12% Criterion XT Bis-Tris polyacrylamide gel (Bio-Rad) and electrophoresis was achieved after applying a tension of 150 V during 90 min using a Criterion electrophoresis Cell with the NuPAGE® MOPS SDS running buffer (1×). Proteins were transferred to a nitrocellulose membrane of […] pore size (G&E Healthcare) using the Criterion blotting system and applying a tension of 100 V for 45 min. To resolve proteins of low molecular weights such as carboxy-terminal fragments of APP, 12% Criterion XT Bis-Tris polyacrylamide gels (Bio-Rad) were used and electrophoresis was performed during 70 min at 150 V in a NuPAGE® MES SDS running buffer (1×). Proteins were transferred to a nitrocellulose membrane of 0.2 μm pore size (G&E Healthcare) at 100 V for 40 min. Molecular weights calibration was achieved using molecular weight markers (Novex and Magic Marks, Life Technologies). Protein transfer and quality were determined by a reversible Ponceau Red coloration (0.2% Xylidine Ponceau Red and 3% Trichloroacetic acid). Membranes were then blocked in 25 mM Tris-HCl pH 8.0, 150 mM NaCl, 0.1% Tween-20 (v/v) (TBS-T) and 5% (w/v) of skimmed milk (TBS-M) or 5% (w/v) of bovine serum albumin (TBS-BSA) depending on the antibody during 1 h. Membrane was rinsed three-times 10 min in TBS-T before incubation with the primary antibody overnight at 4° C. Membrane was rinsed 3 times 10 min with TBS-T and then incubated with the secondary antibody for 45 min at room temperature (RT). […] Quantifications of protein expression levels were performed with ImageJ Software (NIH). […]

For assay [3], the system named is Aβ1-42 peptide secretion. Briefly: Quantification of secreted Aβ1-42 by ELISA in SY5Y-APP695WT cells. The following applies: Homo sapiens; concentration inhibiting 50% of Aβ1-42 peptide secretion in SY5Y cells; 24 h treatment; mean ± SD of at least two experiments in triplicate. Format: cell-based. The procedure:
as §1

Assay [4] has as its system AICD. Briefly: AICD by Western blot in SY5Y-APP695WT cells. It is filed as cell-based, human. Particulars: AICD increase compared to chloroquine ([AICD]compound/[AICD]CQ) at 3 μM; mean of at least three experiments.
Excerpt: as §2, §3, §4, §5

`CN(C)Cc1ccccc1-c1ccc(NCCCN2CCCCC2)cc1` [Compound 44, 2′-((Dimethylamino)methyl)-N-(3-(piperidin-1-yl)propyl)-[1,1′-biphenyl]-4-amine]: the IC50 (as a rule, the concentration that inhibits the measured activity by half) in assay [1] worked out at 3900 ± 1000 nM; in assay [3], 3600 ± 100 nM. Besides, the “CTFα vs CQ (3 μM)” value in assay [2] came to 0.9. The “AICD vs CQ (3 μM)” value in assay [4] worked out at 0.8.
Turning to `CN(C)Cc1ccccc1-c1ccc(NCCN2CCCCC2)c(OCCN2CCCCC2)c1` [Compound 33, 2′-((Dimethylamino)methyl)-3-(2-(piperidin-1-yl)ethoxy)-N-(2-(piperidin-1-yl)ethyl)-[1,1′-biphenyl]-4-amine], the IC50 in assay [1] turned out to be 1400 ± 500 nM; in assay [3], 1200 ± 600 nM. For the same compound, the “CTFα vs CQ (3 μM)” value in assay [2] turned out to be 5.0. For the same compound, the “AICD vs CQ (3 μM)” value in assay [4] amounted to 4.8.
Turning to `CN(C)Cc1ccccc1-c1ccc(NCCCCN2CCCCC2)c(OCCN2CCCCC2)c1` [Compound 36, 2′-((Dimethylamino)methyl)-N-(4-(piperidin-1-yl)butyl)-3-(2-(piperidin-1-yl)ethoxy)-[1,1′-biphenyl]-4-amine], the half-maximal inhibitory concentration (IC50) in assay [1] was 1700 ± 300 nM; in assay [3], 1600 ± 800 nM. Moreover, the “CTFα vs CQ (3 μM)” value in assay [2] was 4.2. Besides, the “AICD vs CQ (3 μM)” value in assay [4] is 3.0.
The like results for `CN(C)Cc1ccccc1-c1ccc(NCCCN2CCCCC2)c(OCCCN2CCCCC2)c1` [Compound 32, 2′-((Dimethylamino)methyl)-3-(3-(piperidin-1-yl)propoxy)-N-(3-(piperidin-1-yl)propyl)-[1,1′-biphenyl]-4-amine] were, in that order, 2100 ± 300 nM, 2000 ± 100 nM, 4.5 and 5.1.
The corresponding values for `c1ccc(-c2ccc(NCCCN3CCCCC3)c(OCCN3CCCCC3)c2)cc1` [Compound 37, 3-(2-(Piperidin-1-yl)ethoxy)-N-(3-(piperidin-1-yl)propyl)-[1,1′-biphenyl]-4-amine] are 5200 ± 100 nM, 4000 ± 400 nM, 2.4 and 2.1.
Regarding `CN(C)Cc1ccccc1-c1ccc(NCCN2CCCCC2)c(OCCCCN2CCCCC2)c1` [Compound 35, 2′-((Dimethylamino)methyl)-3-(4-(piperidin-1-yl)butoxy)-N-(2-(piperidin-1-yl)ethyl)-[1,1′-biphenyl]-4-amine], the IC50 in assay [1] is 1600 ± 100 nM; in assay [3], 1600 ± 300 nM. Further, the “CTFα vs CQ (3 μM)” value in assay [2] is reported as 4.4. Also, the “AICD vs CQ (3 μM)” value in assay [4] is 4.8.
`CN(C)CCCNc1ccc(-n2ccc(CN3CCOCC3)c2)cc1OCCN1CCCCC1` [Compound 57, N-[3-(Dimethylamino)propyl]-4-[3-(morpholine-4-ylmethyl)-1H-pyrrol-1-yl]-2-[2-(piperidin-1-yl)ethoxy]aniline]: the IC50 in assay [1] amounted to 2800 ± 1100 nM; in assay [3] it was 3400 ± 2000 nM. Also, the “CTFα vs CQ (3 μM)” value in assay [2] is listed as 2.2. Further, the “AICD vs CQ (3 μM)” value in assay [4] was 2.6.
The corresponding values for `c1ccc(-c2ccc(NCCCN3CCCCC3)c(OCCN3CCCCC3)c2)c(CN2CCCCC2)c1` [Compound 27, 2-[2-(Piperidin-1-yl)ethoxy]-N-[3-(piperidin-1-yl)propyl]-4-[2-(piperidin-1-ylmethyl)phenyl]aniline] are 2600 ± 100 nM, 4100 ± 1300 nM, 4.3 and 2.7.
The like results for `c1ccc(-c2ccc(NCCCN3CCCCC3)c(OCCN3CCCCC3)c2)c(CN2CCOCC2)c1` [Compound 28, 4-[2-(Morpholin-4-ylmethyl)phenyl]-2-[2-(piperidin-1-yl)ethoxy]-N-[3-(piperidin-1-yl)propyl]aniline] were, in that order, 2800 ± 1200 nM, 4200 ± 1500 nM, 3.1 and 1.7.
The corresponding values for `CN(C)Cc1ccccc1-c1ccc(NCCN2CCCCC2)c(OCCCN2CCCCC2)c1` [Compound 34, 2′-((Dimethylamino)methyl)-N-(2-(piperidin-1-yl)ethyl)-3-(3-(piperidin-1-yl)propoxy)-[1,1′-biphenyl]-4-amine] are 2000 ± 200 nM, 1800 ± 700 nM, 4.5 and 3.4.

The record behind these values is patent publication US20210230131A1, “POLYAMINO BIARYL COMPOUNDS AND THEIR USE” (INSERM (INSTITUT NATIONAL DE LA SANTÉ ET DE LA RECHERCHE …, priority 2018, published 2021).
